In assay [1] the target is Protein Wnt-3a (Mus musculus, UniProt P27467). Nature of the assay: SAR analysis of small molecule antagonists of Gli-SUFU in a Wnt3a luminescent reporter assay. In kind it is functional.
Assay [2] can be described thus: T. cruzi growth inhibition in host cells, dose response, cell-based, plate reader, dry powder, set 2 (AID 652275). The format is functional.
Assay [3] in a line: inhibitors of non-replicating M. tuberculosis, dose response, luciferase, dry powder (AID 651619). The format is functional. The note with it: Mycobacterium tuberculosis.
The nature of assay [4]: inhibitors of non-replicating M. tuberculosis, dose response, luciferase, dry powder (AID 651620). The note with it: Mycobacterium tuberculosis. In kind it is functional.
In assay [5] the target is Endoplasmic reticulum aminopeptidase 1 (Homo sapiens, UniProt Q9NZ08). Nature of the assay: inhibition of human ERAP1 enzyme activity – biochemical, cherry-pick, set 2, plate reader, dose response (AID 743314).
Endoplasmic reticulum aminopeptidase 1, sequence (Q9NZ08 whole entry): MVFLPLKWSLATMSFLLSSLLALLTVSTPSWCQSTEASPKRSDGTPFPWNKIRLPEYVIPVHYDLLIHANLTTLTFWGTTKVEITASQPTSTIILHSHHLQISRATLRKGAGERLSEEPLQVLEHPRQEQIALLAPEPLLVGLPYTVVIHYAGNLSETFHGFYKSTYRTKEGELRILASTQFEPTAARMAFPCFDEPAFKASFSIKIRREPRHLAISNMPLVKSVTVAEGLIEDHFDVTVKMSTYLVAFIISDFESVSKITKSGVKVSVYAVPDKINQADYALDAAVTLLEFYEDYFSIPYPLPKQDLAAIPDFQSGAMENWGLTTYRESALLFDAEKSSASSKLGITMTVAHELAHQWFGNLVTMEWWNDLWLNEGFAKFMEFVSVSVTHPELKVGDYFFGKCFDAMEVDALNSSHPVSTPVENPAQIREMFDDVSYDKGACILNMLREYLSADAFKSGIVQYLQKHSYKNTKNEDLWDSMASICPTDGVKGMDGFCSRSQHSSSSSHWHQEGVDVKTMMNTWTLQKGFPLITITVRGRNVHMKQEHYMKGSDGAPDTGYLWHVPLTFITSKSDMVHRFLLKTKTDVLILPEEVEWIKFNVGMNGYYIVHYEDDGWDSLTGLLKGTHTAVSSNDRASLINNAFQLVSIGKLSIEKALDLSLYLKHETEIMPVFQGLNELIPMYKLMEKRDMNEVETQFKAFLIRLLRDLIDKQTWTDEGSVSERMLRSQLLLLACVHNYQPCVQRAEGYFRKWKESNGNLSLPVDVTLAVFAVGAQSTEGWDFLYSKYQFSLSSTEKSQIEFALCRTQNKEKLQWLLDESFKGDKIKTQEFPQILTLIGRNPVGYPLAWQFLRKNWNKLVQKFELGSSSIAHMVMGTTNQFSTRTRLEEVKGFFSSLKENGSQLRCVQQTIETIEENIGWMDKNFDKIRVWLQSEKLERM
Assay [6] is described as follows: growth inhibition of yeast DHODH-expressing 3D7 parasites – SYBR Green, dry powder samples, dose response (AID 1159570).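 Also: parasite growth measured after 72 hours of compound exposure.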 The format is functional, cell-based.
A short description of assay [7]: toxicity to human HepG2 hepatoma cells – cell-based, plate reader, dry powder samples, cytotoxicity control, dose response (AID 1159569).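 Also: inhibitor potency with signal falling toward the positive control level.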 In kind it is functional.
The nature of assay [8]: P. falciparum Dd2 growth inhibitors, dose response, SYBR Green, cherry-picked samples (AID 1159567). The format is functional, cell-based.
Assay [9] can be described thus: Dd2 malaria parasite growth inhibition potency – SYBR Green, dry powder samples, dose response (AID 1159566).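 Also: potency for growth inhibition with lower SYBR green DNA signal.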 In kind it is functional, cell-based.
Assay [10] is described as follows: growth inhibition of PfATP4-mutant resistant parasites – NITD609-resistant line, SYBR Green, dry powder, dose response (AID 1159571).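 Also: parasites synchronized at ring stage by sorbitol before testing.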 In kind it is functional, cell-based.
A short description of assay [11]: lung carcinoma cell viability loss – CellTiter-Glo luminescence, dry powder, set 17, dose response (AID 1117284). In kind it is functional, cell-based. The note with it: A549. Background: ATP-based viability assays read luminescence as a measure of living cells.
Assay [12] in a line: Trypanosoma cruzi growth suppression in host cells – NIH3T3 host cells, beta-gal luminescence, confirmation (AID 2044).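 Also: intracellular parasites grown in NIH/3T3 mouse fibroblasts as host cells; luminescent beta-galactosidase reporter signal from transgenic T. cruzi replicating inside host cells; inhibitors lower the luminescence signal.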 In kind it is functional, cell-based.
The nature of assay [13]: viability of PTEN-deleted HCT116 cells – cell-based, HCT116 PTEN knockout, dose response (AID 1047).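 Also: HCT116 colon tumor cells with PTEN knocked out; cells exposed to compound for 60 hours before readout; potency for loss of cell viability measured by luminescence.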 In kind it is functional.
The nature of assay [14]: NIH3T3 cell viability loss – ATP luminescence, mouse fibroblasts, counter-screen, dose response (AID 2010).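 Also: cells exposed to compound for about 90 hours before reading.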 The format is functional, cell-based. A general note: Counterscreens check selectivity or assay interference.
Assay [15] in a line: viability of HCT116 lacking mutant beta-catenin – cell-based, human colon tumor, dose response (AID 1045).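 Also: HCT116 colon tumor cells with beta catenin knocked out; cells exposed to compound for 60 hours.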 In kind it is functional.
The nature of assay [16]: Luminescence Cell-Based Dose Retest to Confirm Inhibitors of Cancer Stem Cells. [Related pubchem assays (depositor defined):AID2717, AID2721]. In kind it is functional. The note with it: Homo sapiens.
In assay [17] the target is T1, Ubiquitin-conjugating enzyme E2 N (Homo sapiens, UniProt P61088).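 Also: Dose-response confirmation in a TR-FRET assay detecting UBC13-driven polyubiquitin chain formation, inhibition measured.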
T1 sequence (P61088 whole entry): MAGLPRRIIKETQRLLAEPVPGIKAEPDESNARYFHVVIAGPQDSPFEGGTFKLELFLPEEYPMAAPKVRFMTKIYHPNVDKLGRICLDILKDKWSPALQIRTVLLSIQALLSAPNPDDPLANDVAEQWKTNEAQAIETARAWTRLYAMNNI
The format is functional.

The test system of assay [18] is INS1. Briefly: INS-1E survival protection against cytokine death – cell-based, luminescence, retest, dose response (AID 449756).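 Also: cell death triggered by IL-1 beta plus TNF-alpha plus IFN-gamma mixture; protective hits raise ATP signal compared with cytokine alone wells.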 The note with it: Rattus norvegicus. The format is functional.
Assay [19] in a line: blockers of HIV-1 envelope-mediated cell-cell fusion – cherry-pick, dose response (AID 652057). The format is functional, cell-based.
Assay [20] can be described thus: viability loss in CEM21 cells – cell-based, CellTiter-Glo luminescence, cherry-picked, cytotoxicity control for viral fusion inhibitor project, dose response (AID 652042).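 Also: potency for signal decrease meaning cytotoxicity.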 The format is functional.
The nature of assay [21]: blockers of HIV-1 ZM109 envelope-driven cell-cell fusion – HeLa effector, CEM target cells, luciferase, cherry-pick, dose response (AID 652058).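 Also: luciferase signal from HIV-1 Env mediated cell-cell fusion of effector and target cells.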 In kind it is functional, cell-based.
The nature of assay [22]: off-target signal loss in HeLa-CEM21 co-culture – HeLa F-luc CTL cells, cherry-picked, counter-screen for HIV-1 Env fusion inhibitor project, dose response (AID 652040).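 Also: potency for signal decrease marking cytotoxic or nonspecific inhibition.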 In kind it is functional, cell-based.
Assay [23] is described as follows: HIV-1 AD8 envelope cell-cell fusion blockers – cherry-pick, dose response (AID 652062).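 Also: luciferase signal from cell-cell fusion driven by HIV-1 clade B AD8 Env; potency is for inhibitors of fusion seen as a drop in luminescence.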 The format is functional, cell-based.
Assay [24] deals with Cytochrome P450 2C19 (Homo sapiens, UniProt P33261). Briefly: Cytochrome panel assay with activity outcomes. Panel member name: p450-cyp2c19 Compounds with AC50 equal or less than 10 uM are considered active. The note with it: read-out: AC50. In kind it is functional.
Cytochrome P450 2C19, sequence (P33261 whole entry): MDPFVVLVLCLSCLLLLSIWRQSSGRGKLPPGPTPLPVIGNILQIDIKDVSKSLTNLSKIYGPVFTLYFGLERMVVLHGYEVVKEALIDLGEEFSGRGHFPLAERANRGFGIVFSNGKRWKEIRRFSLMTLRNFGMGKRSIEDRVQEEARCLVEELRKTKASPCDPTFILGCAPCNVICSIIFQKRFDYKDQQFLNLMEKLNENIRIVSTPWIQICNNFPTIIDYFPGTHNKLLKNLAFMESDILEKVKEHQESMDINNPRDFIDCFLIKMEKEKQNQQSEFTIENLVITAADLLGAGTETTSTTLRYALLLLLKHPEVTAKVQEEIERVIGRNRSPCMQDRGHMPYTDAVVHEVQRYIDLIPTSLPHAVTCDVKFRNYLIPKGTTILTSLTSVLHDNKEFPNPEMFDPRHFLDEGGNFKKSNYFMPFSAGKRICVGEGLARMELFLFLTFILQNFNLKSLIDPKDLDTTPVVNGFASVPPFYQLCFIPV
Assay [25] in a line: IC50 of insulin release inhibition, rat insulinoma INS-1E line, 5 mM glucose, cell-based (AID 1117331). In kind it is functional.
A short description of assay [26]: cells. The format is functional, cell-based. Conditions: INS-1E.
Assay [27] addresses T2, Cytochrome P450 1A2 (Homo sapiens, UniProt P05177).
T2 sequence (P05177 whole entry): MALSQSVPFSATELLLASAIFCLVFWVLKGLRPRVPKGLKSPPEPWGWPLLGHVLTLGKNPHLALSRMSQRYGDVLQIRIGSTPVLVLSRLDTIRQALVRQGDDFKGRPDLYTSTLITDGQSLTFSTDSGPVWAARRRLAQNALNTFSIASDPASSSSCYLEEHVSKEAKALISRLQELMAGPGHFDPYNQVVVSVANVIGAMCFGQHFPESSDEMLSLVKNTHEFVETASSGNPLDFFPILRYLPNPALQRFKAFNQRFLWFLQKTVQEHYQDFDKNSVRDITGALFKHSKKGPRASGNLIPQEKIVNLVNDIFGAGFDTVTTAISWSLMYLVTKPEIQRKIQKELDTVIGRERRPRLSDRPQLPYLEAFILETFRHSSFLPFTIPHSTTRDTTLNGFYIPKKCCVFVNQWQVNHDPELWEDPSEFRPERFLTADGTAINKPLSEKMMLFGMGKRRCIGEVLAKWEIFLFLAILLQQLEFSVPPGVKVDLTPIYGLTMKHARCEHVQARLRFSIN

Molecules are shown by their SMILES. Counter-ions that a name gives are not always drawn. The source made the active and inactive calls.

What is called IC50 is the concentration needed to halve the response being measured. Usually AC50 stands for the concentration at which the activity in the assay is half-maximal. For orientation: IC90 means the concentration at which the effect reaches the 90% level. By EC50 is commonly meant the concentration at which the effect is half-maximal.

Protein Wnt-3a, sequence (P27467 whole entry): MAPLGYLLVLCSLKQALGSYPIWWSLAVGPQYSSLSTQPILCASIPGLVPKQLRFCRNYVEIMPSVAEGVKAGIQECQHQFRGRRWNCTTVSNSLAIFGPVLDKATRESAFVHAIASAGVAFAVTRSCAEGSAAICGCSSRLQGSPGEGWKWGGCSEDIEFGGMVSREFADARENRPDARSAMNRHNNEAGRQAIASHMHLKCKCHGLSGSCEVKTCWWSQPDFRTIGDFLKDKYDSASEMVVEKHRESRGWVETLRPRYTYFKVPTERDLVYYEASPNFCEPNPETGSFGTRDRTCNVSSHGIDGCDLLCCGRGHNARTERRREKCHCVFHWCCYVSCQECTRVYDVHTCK

With `CN(C)c1cc(NC(=O)c2ccccc2)ncn1`, the IC50 in assay [1] was > 21.8 µM (inactive).

Consider `CN(C)C(=O)c1ccc(-c2ccc([C@H]3[C@H](CO)N4CCCCN(CC5CC5)C[C@@H]34)cc2)cc1`, for which the AC50 in [2] is 2.74 µM (active).

As to `COc1ccc(CSc2nnc(-c3ccc(Cl)cc3)o2)nc1`, the IC90 in assay [3] and in [4] was 2 µM (active) throughout.

For the compound `CCC(=O)N1[C@H](C(=O)OC)[C@@H](CO)[C@@H]2Cn3c(ccc(/C=C/c4ccccc4)c3=O)[C@@H]21`, the AC50 in [5] is 12.8 µM (active).

Turning to `COc1cccc(NC(=O)N2[C@@H](CO)[C@H](c3ccccc3)[C@@H]2CNCC(C)C)c1`, the AC50 in assay [6] is 1.46 µM (active); in assay [7], 95.4 µM (active); in [8] it was 2.02 µM (active); in assay [9], 0.852 µM (active); in assay [10], 1.66 µM (active).

For the compound `COc1ccccc1-c1ccc(CN(C)C[C@@H]2Oc3cc(C#C[C@@H](C)O)ccc3S(=O)(=O)N([C@@H](C)CO)C[C@@H]2C)cc1`, in assay [11], the AC50 is > 52 µM (inactive).

Consider `CN(C)C(=O)c1ccc(-c2cccc(-c3nc(C(=O)NC4CCCC4)cc4c3[C@H](CCO)N([S@@+]([O-])C(C)(C)C)C4)c2)cc1`, for which the AC50 in assay [6] was 1.14 µM (active); in assay [7] it was 30.5 µM (active); in assay [8], 1.99 µM (active); in assay [9], 0.768 µM (active); in assay [10], 1.03 µM (active).

Turning to `Cc1ccc(Nc2cc(C)nc(NCc3ccccc3)n2)cc1`, the EC50 in assay [12] was 0.255 µM (active); in assay [13] it was 7.18 µM (active); in [14] it was > 60 µM (inconclusive); in assay [15] it was 6.62 µM (active). Also, the AC50 in [16] is 6.3 µM (active); in [18], 3.94 µM (active); in assay [19], 4.04 µM (active); in assay [20] it was 17.2 µM (active); in assay [21] it was 4.51 µM (active); in assay [22], 4.77 µM (active). Also, the AC50 in assay [23] is 7.54 µM (active). Also, the IC50 in assay [17] is > 20 µM (inactive).

Regarding `N=C(N)NCCC[C@H](N)C(=O)O` [ARGININE], the AC50 was 10 µM (inconclusive) in assay [24] and 31.6 µM (inconclusive) in [27]. Besides, the IC50 in assay [25] and in assay [26] was > 33.3 µM (inactive) in each case.

As for `CN(C)CCOC(c1ccc(Cl)cc1)c1ccccn1` (centres undefined) [CARBINOXAMINE MALEATE], the IC50 was 21.4 µM (inactive) in assay [25] and > 33.3 µM (inactive) in assay [26].

The values above are taken from ChEMBL document CHEMBL1201862, “PubChem BioAssay data set” (2004).
